Test [1] has as its system peripheral blood mononuclear cells (PBMCs). Kind of test: IFNb and TNFa secretion by freshly isolated PBMCs (ELISA). It counts as cell-based, human. Conditions: 20 hours. As to the method:
FIG. 25 depicts freshly isolated peripheral blood mononuclear cells (PBMCs) treated with a range of concentrations of compound 3 or DMSO control for 20 hours. Supernatants were collected to measure IFNb and TNFa secretion by Verikine-Human IFN beta Serum ELISA kit and Human TNF Alpha ELISA kit respectively. The amount of cytokine releases into supernatant was calculated by a standard curve. Compound 3 induces IFNβ and TNFα secretion in PBMCs after treatment.
FIG. 29 depicts freshly isolated PBMCs that were treated with a range of concentrations of compound 4 or DMSO control for 20 hours. Supernatants were collected to measure IFNb and TNFa secretion by Verikine-Human IFN beta Serum ELISA kit and Human TNF Alpha ELISA kit respectively. The amount of cytokine releases into supernatant was calculated by a standard curve. Compound 4 induces IFNβ and TNFα secretion in PBMCs after treatment.
(An ELISA detects its analyte on a solid surface through an enzyme-linked reagent.)

The subject of test [2] is NF-κβ. Kind of test: In vitro induction of NF-κβ in THP1 dual cells (SEAP reporter). The test is classed as cell-based. The method, then:
(§1) Example 2. In Vitro Induction of IRF and NF-κβ in THP1 Cells
(§2) THP1 dual cells grown in complete media were treated with various concentrations of a compound of the present disclosure or DMSO control. Dual cells carry both secreted embryonic alkaline phosphatase (SEAP) reporter gene under the control of an IFN-β minimal promoter fused to five copies of the NF-kB consensus transcriptional response element to measure NF-kB activity and Lucia reporter gene under the control of an ISG54 minimal promoter to measure IRF activity. After 20 h incubation, IRF activity was assessed using QUANTI-luc to measure levels of Lucia and NF-kB activity was determined by measure SEAP levels at 620-655 nm. % induction was calculated from fold change in luminescence/absorbance compared to DMSO treated sample. […] EC50 values were generated by curve fit in Xlfit.
(§3) Cells grown in complete media were treated with various concentrations of a compound of the disclosure or DMSO control. Dual cells carry both secreted embryonic alkaline phosphatase (SEAP) reporter gene under the control of an IFN-β minimal promoter fused to five copies of the NF-kB consensus transcriptional response element to measure NF-kB activity and Lucia reporter gene under the control of an ISG54 minimal promoter to measure IRF activity. After 20 h incubation, IRF activity was assessed using QUANTI-luc to measure levels of Lucia and NF-kB activity was determined by measure SEAP levels at 620-655 nm. % induction was calculated from fold change in luminescence/absorbance compared to DMSO treated sample. EC50 values are generated by curve fit in Xlfit.

Test [3] has as its system STING KO cells. As to the kind of experiment: IRF and NF-kB reporter activity in STING KO cells. It counts as cell-based. Particulars: 20 hours. The method, then:
FIG. 21 depicts cells stably expressing both or either one of the reporters to measure IRF and NF-kB activity were treated with a range of concentrations of compound 1 or DMSO control for 20 hours. IRF activity was assessed using QUANTI-luc to measure levels of Lucia and NF-kB activity was determined by measure SEAP levels at 620-655 nm. % induction was calculated from fold change in luminescence/absorbance compared to DMSO treated sample. EC50 values are generated by curve fit in Xlfit.
(§4) FIG. 22 depicts cells stably expressing both or either one of the reporters to measure IRF and NF-kB activity were treated with a range of concentrations of compound 2 or DMSO control for 20 hours. IRF activity was assessed using QUANTI-luc to measure levels of Lucia and NF-kB activity was determined by measure SEAP levels at 620-655 nm. % induction was calculated from fold change in luminescence/absorbance compared to DMSO treated sample. EC50 values are generated by curve fit in Xlfit.
(§5) FIG. 24 depicts cells stably expressing both or either one of the reporters to measure IRF and NF-kB activity were treated with a range of concentrations of compound 3 or DMSO control for 20 hours. IRF activity was assessed using QUANTI-luc to measure levels of Lucia and NF-kB activity was determined by measure SEAP levels at 620-655 nm. % induction was calculated from fold change in luminescence/absorbance compared to DMSO treated sample. EC50 values are generated by curve fit in Xlfit.
(§6) FIG. 27 depicts cells stably expressing both or either one of the reporters to measure IRF and NF-kB activity were treated with a range of concentrations of compound 4 or DMSO control for 20 hours. IRF activity was assessed using QUANTI-luc to measure levels of Lucia and NF-kB activity was determined by measure SEAP levels at 620-655 nm. % induction was calculated from fold change in luminescence/absorbance compared to DMSO treated sample. EC50 values are generated by curve fit in Xlfit.
as §3

Test [4] has as its system RAW-Lucia-ISG-STING KO cells. Kind of test: IRF-type I IFN secreted luciferase in RAW-Lucia-ISG-STING KO cells. It counts as cell-based. Conditions: compound alone, 19 hours. The method, then:
FIG. 4 depicts RAW-Lucia-ISG-WT and RAW-Lucia-ISG-STING KO cells were stimulated with compound 2 or compound 4, alone for 19 hours. Activity of secreted luciferase (IRF-type I IFN activity) in cell culture supernatant was measured using Invivogen's Quanti-luc. Data is shown as fold induction over DMSO treated cells (mean±standard deviation of triplicate wells per stimulant). EC50 values were calculated using XLfit.

Test [5] addresses T1, R71H-G230A-R293Q (HAQ) variant of hSTING (Homo sapiens, UniProt Q86WV6, G230A/H232R/R293Q/R71H).
T1 construct: THP1-Dual-WT cells express STING-HAQ variant; endogenous in cells; host or cells: THP1-Dual-WT cells
Kind of test: IRF/NF-kB reporter cells, STING HAQ variant. It counts as cell-based. Conditions: 20 hours. The method, then:
as §4, §5, §6
Cells grown in complete media were treated with various concentrations of a compound of the disclosure or DMSO control. […] After 20 h incubation, IRF activity was assessed using QUANTI-luc to measure levels of Lucia and NF-kB activity was determined by measure SEAP levels at 620-655 nm. % induction was calculated from fold change in luminescence/absorbance compared to DMSO treated sample. […]

The subject of test [6] is IRF. Kind of test: In vitro induction of IRF in THP1 dual cells (Lucia reporter, ISG54 promoter). It counts as cell-based. As to the method:
as §1, §2, §3

Test [7] addresses T2, STING CTD (Homo sapiens, UniProt Q86WV6, H232R).
T2 construct: Thermal shift assay was conducted with 0.1 mg/mL of STING CTD
As to the kind of experiment: Thermal shift assay with STING CTD. Conditions: 0.1 mg/mL STING CTD, compound 2 mM to 0.05 uM. The test is classed as binding. The method, then: Fluorescence as a function of temperature was recorded using a Real Time PCR machine (Thermo Fisher). The temperature gradient was performed in the range of 25-80° C. with a ramp of 0.2° C. over the course of 60 minutes. Data was analyzed with the Thermal Shift Software (Thermo Fisher) and DSF analysis. The Derivative model was used to fit the fluorescence data to obtain the midpoint temperature for the thermal protein unfolding transition (Tm) using the curve-fitting software Prism.

Where [8] appears, read: Homo sapiens, THP-1, 20 h incubation.

T1 sequence (Q86WV6 whole entry R71H/G230A/H232R/R293Q): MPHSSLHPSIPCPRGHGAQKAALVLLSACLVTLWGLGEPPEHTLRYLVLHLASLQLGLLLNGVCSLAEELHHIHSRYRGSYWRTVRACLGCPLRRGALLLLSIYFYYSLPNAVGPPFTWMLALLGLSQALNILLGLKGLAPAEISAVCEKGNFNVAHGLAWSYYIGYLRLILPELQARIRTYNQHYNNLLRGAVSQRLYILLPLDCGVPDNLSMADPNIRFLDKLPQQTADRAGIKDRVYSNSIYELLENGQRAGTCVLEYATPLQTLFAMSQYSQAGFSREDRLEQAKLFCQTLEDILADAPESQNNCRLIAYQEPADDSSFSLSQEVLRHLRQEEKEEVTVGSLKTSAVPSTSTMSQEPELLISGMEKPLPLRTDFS
T2 sequence (Q86WV6 135-379 H232R): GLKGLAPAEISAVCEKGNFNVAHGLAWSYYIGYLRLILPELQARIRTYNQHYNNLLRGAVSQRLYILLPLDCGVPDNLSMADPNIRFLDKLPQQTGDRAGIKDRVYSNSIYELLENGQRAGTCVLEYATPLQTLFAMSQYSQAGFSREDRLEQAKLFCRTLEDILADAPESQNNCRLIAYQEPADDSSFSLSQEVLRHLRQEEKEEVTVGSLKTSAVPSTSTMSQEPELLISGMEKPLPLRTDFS

On to `CCCCCCCCCCOc1ccc(C(=O)Oc2ccc(CSP3(=O)OC[C@H]4O[C@@H](n5cnc6c(N)ncnc65)[C@H](F)[C@@H]4OP(=O)(O)OC[C@H]4O[C@@H](n5ccc(=O)[nH]c5=O)[C@H](O3)[C@@H]4F)cc2)cc1` (stereo partly shown) [Compound 4], for which, in test [1], the IFNβ secretion entry was “induces”. The TNFα secretion entry in test [1] was “induces”. Moreover, the EC50 in test [2] (20 h incubation) and in test [6] (20 h incubation) was less than 0.05 µM each time. Besides, the “IRF activity in STING KO cells” value in test [3] is listed as “did not induce”; in test [4] it was “Neither compound induced IRF activity”. Also, the “NF-κβ in STING KO cells” value in test [3] is “did not induce”. Besides, in test [5], the “activity against R71H-G230A-R293Q (HAQ) variant of hSTING” value is listed as “possess activity”.

As for `N.N.Nc1ncnc2c1ncn2[C@@H]1O[C@@H]2COP(=O)(S)O[C@@H]3[C@H](F)[C@@H](COP(=O)(O)O[C@H]2[C@H]1F)O[C@H]3n1ccc(=O)[nH]c1=O` (stereo partly shown) [Compound 3], in test [1], the IFNβ secretion result is given as “induces” and the TNFα secretion result is “induces”. In addition, the “binding to STING (thermal shift)” value in test [7] was “bind to STING with high affinity”. Also, the EC50 in test [2] (setting [8]) was greater than 2 µM. In test [3], the “IRF activity in STING KO cells” value was “did not induce” and the “NF-κβ in STING KO cells” value was “did not induce”. Moreover, the “activity against R71H-G230A-R293Q (HAQ) variant of hSTING” value in test [5] was “possess activity”. In addition, the EC50 in test [6] (setting [8]) was less than 0.05 µM.

By EC50 is commonly meant the concentration needed to bring the measured effect to its halfway point. Read a high EC50 as a less potent agent.

(Values after patent publication US11638716B2, “Compounds, compositions, and methods for the treatment of disease” (F-star Therapeutics, Inc., priority 2017, dated 2023).)
